pEC50: −log10 of the molar value. Like-named read-outs stand apart in the source and are kept apart here.
What was measured:
[1] = system: HCV genotype 1b luciferase reporter replicon; assay: microbe, parasite or virus in culture; format: cell-based
Experimental: The plates were cultured for 24 hours prior to the addition of compounds. Six serial one half log dilutions of the test articles (high test concentration of 100.0 μM or high test concentration of 1.0 μM) and human interferon-alpha2b (high test 10.0 U/ml) were prepared in cell culture medium and added to the cultured cells in triplicate wells for each dilution. Six wells in the test plates received medium alone as an untreated control. Following 72 hours of culture in the presence of compound, one of the plates was used for the determination of cytotoxicity by staining with XTT and the other for antiviral efficacy by determination of luciferase reporter activity. Cytotoxicity and efficacy data were collected and imported into a customized Excel workbook for determination of the TC50 and EC50 values. […] The y-axis is the percent of virus control and the x-axis is the concentration of drug in μM. […] The y-axis is the percent of virus control and the x-axis is the concentration of drug in M.

[2] = system: human bone marrow progenitor cells; assay: Human Bone Marrow Progenitor Cell Assay; format: cell-based; details: 14-day incubations, colony counts
Experimental: Fresh human bone marrow progenitor cells (Invitrogen) suspended in either BFU-E or GM-CSF-specific culture medium were added, at 10^5 cells/well, to triplicate serial dilutions of TA in 6-well plates. After 14-day incubations, colony counts were used to determine CC50 values. BFU-E colonies were confirmed using the benzidene technique.

iPS Cardiomyocytes = assay: iPS Cardiomyocyte Assay; format: cell-based, human; details: 3 days, XTT
Experimental: iPS Cardiomyocytes (Cellular Dynamics) were seeded in microliter plates at 1.5×10^4 cells per well. After 48-hr incubation, cells were washed and maintenance medium containing serially diluted TA was added in triplicate. After incubating for an additional 3 days, cell viability was measured by staining with XTT and CC50 values were calculated.

human DNA polymerase α = target: T1, human DNA polymerase α (Homo sapiens, UniProt P09884); assay: Human DNA Polymerase Assays; format: biochemical; details: at concentrations up to 100 μM
T1 construct: purchased CHIMERx
T1 sequence (P09884 1-1462): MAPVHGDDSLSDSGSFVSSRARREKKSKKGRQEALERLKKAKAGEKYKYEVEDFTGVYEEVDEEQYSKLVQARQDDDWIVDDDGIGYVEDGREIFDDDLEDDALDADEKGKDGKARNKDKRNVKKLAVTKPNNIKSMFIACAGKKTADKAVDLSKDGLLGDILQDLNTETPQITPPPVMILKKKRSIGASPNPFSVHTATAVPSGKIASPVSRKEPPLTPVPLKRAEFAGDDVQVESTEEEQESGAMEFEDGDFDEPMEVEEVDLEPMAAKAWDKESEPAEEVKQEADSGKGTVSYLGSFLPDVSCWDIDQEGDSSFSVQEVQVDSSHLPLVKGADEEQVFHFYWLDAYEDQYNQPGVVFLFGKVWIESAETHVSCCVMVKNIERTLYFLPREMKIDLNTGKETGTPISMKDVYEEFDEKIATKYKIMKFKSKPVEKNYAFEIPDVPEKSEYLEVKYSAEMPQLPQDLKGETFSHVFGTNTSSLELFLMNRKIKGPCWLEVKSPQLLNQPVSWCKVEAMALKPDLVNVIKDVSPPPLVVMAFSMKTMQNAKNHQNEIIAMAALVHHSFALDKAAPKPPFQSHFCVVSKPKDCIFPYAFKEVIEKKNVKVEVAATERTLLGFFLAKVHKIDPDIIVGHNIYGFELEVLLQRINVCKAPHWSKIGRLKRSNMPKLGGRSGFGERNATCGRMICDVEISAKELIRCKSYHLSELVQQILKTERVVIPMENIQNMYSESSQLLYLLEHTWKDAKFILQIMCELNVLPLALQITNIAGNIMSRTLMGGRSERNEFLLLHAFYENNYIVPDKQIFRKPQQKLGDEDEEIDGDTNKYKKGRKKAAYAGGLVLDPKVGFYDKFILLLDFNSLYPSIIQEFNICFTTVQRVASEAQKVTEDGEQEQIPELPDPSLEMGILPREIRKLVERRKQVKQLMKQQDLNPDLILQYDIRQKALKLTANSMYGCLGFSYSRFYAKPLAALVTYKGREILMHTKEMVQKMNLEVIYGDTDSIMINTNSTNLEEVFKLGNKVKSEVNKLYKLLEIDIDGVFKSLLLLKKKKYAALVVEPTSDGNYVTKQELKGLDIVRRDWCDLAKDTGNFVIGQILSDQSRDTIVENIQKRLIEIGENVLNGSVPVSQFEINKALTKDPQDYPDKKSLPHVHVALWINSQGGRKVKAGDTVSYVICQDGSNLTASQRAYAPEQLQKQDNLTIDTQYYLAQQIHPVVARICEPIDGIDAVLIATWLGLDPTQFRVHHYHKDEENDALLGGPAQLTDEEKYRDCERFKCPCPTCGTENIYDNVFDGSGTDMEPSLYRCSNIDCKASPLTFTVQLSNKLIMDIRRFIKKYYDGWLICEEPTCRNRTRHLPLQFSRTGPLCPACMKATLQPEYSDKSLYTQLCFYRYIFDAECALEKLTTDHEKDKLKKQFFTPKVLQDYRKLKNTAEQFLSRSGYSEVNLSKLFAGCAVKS
Experimental: (§1) Inhibition of human DNA polymerases α, β and γ (CHIMERx) was determined in triplicate in reaction mixtures of serially diluted TA, 0.05 mM dCTP, dTTP, and dATP, 10 μCi [^32P]-α-dGTP (800 Ci/mmol), 20 μg activated calf thymus DNA and additional reagents specific for each polymerase.

human DNA polymerase β = target: T2, human DNA polymerase β (Homo sapiens, UniProt P06746); assay: Human DNA Polymerase Assays; format: biochemical; details: at concentrations up to 100 μM
T2 construct: purchased CHIMERx
Experimental: as §1

[3] = Hepatitis C virus; Huh-7 luc/neo ET cells, 72 hours, luciferase; read-out: HCV Replicon EC50/EC95: EC95
[4] = Hepatitis C virus; read-out: EC50 in a replicon assay

| SMILES | fold increase in activity (versus parent nucleoside) [1] | EC95 [1, 3] | pEC50 [1, 4] | Fold increase in activity compared to parent nucleoside ([1]; Table 7) | cytotoxicity against bone marrow stem cells in vitro [2] | cytotoxicity against iPS cardiomyocytes in vitro (iPS Cardiomyocytes) | inhibition of human DNA polymerase α (human DNA polymerase α) | inhibition of human DNA polymerase β (human DNA polymerase β) | pEC50 ([1]; Hepatitis C virus, read-out: EC50 in a replicon assay) |
| --- | --- | --- | --- | --- | --- | --- | --- | --- | --- |
| CNc1nc(N)nc2c1ncn2[C@@H]1OC(CO[P@@](=O)(N[C@@H](C)C(=O)OC(C)C)Oc2ccccc2)[C@@H](O)[C@@]1(C)F (stereo partly drawn) [Compound 5-2] | ≥ 3,900 | 28 nM | 8.40 | >3,900 | no cytotoxicity | no cytotoxicity |  |  |  |
| CC(C)OC(=O)[C@H](C)N[P@](=O)(OCC1O[C@@H](n2cnc3c(N(C)C)nc(N)nc32)[C@](C)(F)[C@@H]1O)Oc1ccccc1 (stereo partly drawn) [Compound 25, isopropyl ((((S)-(2R,3R,4R,5R)-5-(2-amino-6-(dimethylamino)-9H-purin-9-yl)-4-fluoro-3-hydroxy-4-methyltetrahydrofuran-2-yl)methoxy)-phenoxy-phosphoryl)-L-alaninate] | ≥ 2,600 | 19 nM | 8.40 | >2,600 | no cytotoxicity | no cytotoxicity | No inhibition | No inhibition |  |
| CC(C)OC(=O)[C@H](C)N[P@](=O)(OCC1O[C@@H](n2cnc3c(N(C)C4CC4)nc(N)nc32)[C@](C)(F)[C@@H]1O)Oc1ccccc1 (stereo partly drawn) [Compound 27, isopropyl ((((S)-(2R,3R,4R,5R)-5-(2-amino-6-(methylcyclopropanamino)-9H-purin-9-yl)-4-fluoro-3-hydroxy-4-methyltetrahydrofuran-2-yl)methoxy)-phenoxy-phosphoryl)-L-alaninate] |  | 25 nM |  | >1,100 | no cytotoxicity | no cytotoxicity | No inhibition | No inhibition | 8.30 |
